3 compounds from patent US7678781B2, “11-phosphorous steroid derivatives useful as progesterone receptor modulators” (Janssen Pharmaceutica N.V., priority 2006, dated 2010) can be followed below.

Experiment [1] relates to T47D human breast cancer cells. Description: Alkaline phosphatase assay in human breast cancer cell line T47D. It counts as cell-based. The conditions noted are these: 24 h, read-out: T47D IC50 (nM). The method, then: Alkaline Phosphatase Assay in Human Breast Cancer Cell Line T47D
T47D human breast cancer cells were grown in RPMI medium without phenol red (Invitrogen) containing 10% (v/v) heat-inactivated fetal bovine serum (FBS; Hyclone), 1% (v/v) penicillin-streptomycin (Invitrogen), 1% (w/v) glutamine (Invitrogen), and […] insulin (Sigma). Incubation conditions were 37° C. in a humidified 5% (v/v) carbon dioxide environment.
The cells were plated in 96-well tissue culture plates at 10,000 cells per well in assay medium [RPMI medium without phenol red (Invitrogen) containing 5% (v/v) charcoal-treated FBS (Hyclone) and 1% (v/v) penicillin-streptomycin (Invitrogen)]. Two days later, the medium was decanted and test compound or control were added at a final concentration of 0.1% (v/v) dimethyl sulfoxide in fresh assay medium. Twenty-four hours later, an alkaline phosphatase assay was performed using a SEAP kit (BD Biosciences Clontech, Palo Alto, Calif.). Briefly, the medium was decanted and the cells were fixed for 30 minutes at room temperature with 5% (v/v) formalin (Sigma). The cells were washed once with room temperature Hank's buffered saline solution (Invitrogen). Equal volumes (0.05 mL) of 1× Dilution Buffer, Assay Buffer and 1:20 substrate/enhancer mixture were then added. After 1 hour incubation at room temperature in the dark, the lysate was transferred to a white 96-well plate (Dynex) and luminescence was read using a LuminoSkan Ascent (Thermo Electron, Woburn, Mass.).

In experiment [2] the test system is A549 Human lung carcinoma cells. Kind of experiment: Transient transfection and Steady Glo luciferase assay in A549 cells with dexamethasone challenge. The format is cell-based. The conditions noted are these: transfected A549 cells, challenged with dexamethasone (glucocorticoid agonist), 24 h. Here is the method:
Transient Transfection and Steady Glo Luciferase Assay
A549 Human lung carcinoma cells were grown in F-12K Nutrient Mixture containing 10% (v/v) fetal bovine serum (FBS; Invitrogen), 2 mM glutamine and 0.15% sodium dicarbonate(Invitrogen).
A549 cells were split 1 to 3 in 175 cm tissue culture flask. The cells were incubated at 37° C. in CO2 incubator until the cells were 95% confluent (typically 24-30 hours).
The following solutions were prepared in sterile tubes: (a) Solution A: 1.5 μg/ml of DNA in 8.5 ml OPTI-MEM I Reduced Serum Medium. (GIBCO cat# 31985) and (b) Solution B: 6 μl/ml of DMRIE-C Reagent into […] OPTI-MEM I. The two solutions were combined and mixed gently, then incubated at room temperature for 40 minutes.
The A549 cells prepared above were washed with […] of OPTI-MEM I. The medium was removed and 17 ml of the lipid-DNA complex solution was overlayed onto cells. The cells ere then incubated for 16 h at 37° C. in CO2 incubator. The DNA-containing medium was removed and 30 ml of growth medium was added. (5% Charcoal treated FBS) After 5-6 h, the cells were seeded in a 96 well plate and the cells incubated overnight at 37° C. in CO2 incubator.
To each well was then added 5 μl of test compounds and the cells incubated at 37° C. for 10 min. […] A 150 μL sample from each well was then transferred into a DYNEX Microlitel plate and read on Top-counter.

Turning to `C=C1CCO[C@]12CC[C@H]1[C@@H]3CCC4=CC(=O)CCC4=C3[C@@H](c3ccc(P(C)(C)=O)cc3)C[C@@]12C` [Compound 4], the IC50 (usually the concentration that gives 50% inhibition) in experiment [1] was 3 nM.
As to `C[C@]12C[C@H](c3ccc(P(=O)(Oc4ccccc4)Oc4ccccc4)cc3)C3=C4CCC(=O)C=C4CC[C@H]3[C@@H]1CCC2=O` [Compound 33], the IC50 in experiment [2] was 217 nM; in experiment [1], more than 1000 nM.
Taken in the same sequence, the figures for `C=C1CCO[C@]12CC[C@H]1[C@@H]3CCC4=CC(=O)CCC4=C3[C@@H](c3ccc(P(=O)(Oc4ccccc4)Oc4ccccc4)cc3)C[C@@]12C` [Compound 37] were 34.3 nM and 3.3 nM.
